Assay results published in US20250059174A1, “Pharmaceutical Compounds and Compositions as C-Kit Kinase Inhibitors” (Enanta Pharmaceuticals, Inc., priority 2023, published 2025).

What was measured:
[1] = target: Recombinant human c-KIT kinase (Homo sapiens (Human), UniProt P10721); test: c-KIT kinase chemiluminescence assay (ADP-Glo); format: biochemical; details: ATP 50 μM
Summary of the method: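 Recombinant human c-KIT preincubated 30 min at RT in 40 mM Tris pH 7.5, 20 mM MgCl2, 0.1 mg/mL BSA, 50 μM DTT, then reacted 2 h at RT with ATP and polyEY substrate. ADP-Glo luminescence readout; activity normalized to high/low controls, IC50 and Hill coefficient from inhibitor-versus-normalized-response fit.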

[2] = tested on: M-07e cells; test: M-07e cellular assay (SCF-mediated cell proliferation); format: cell-based; details: Homo sapiens, 72 hours, CellTiter Glo
Method: M-07e cells (Creative Bioarray, CSC-C0249) which endogenously express human c-KIT were used to evaluate the effect of compounds on stem cell factor (SCF)-mediated cell proliferation. M-07e cells were cultured in growth media (RPMI+10% FBS+1% penicillin/streptomycin+10 ng/mL GM-CSF) at 5E5-1.5E6 cells/mL, replenishing media every 3-4 days. 1.5E4 cells were seeded per well in 384 well tissue culture treated plates in 20 μL assay media (RPMI+[…]+1% penicillin/streptomycin) without growth factor stimulation and incubated at 37° C. in a CO2 humidity-controlled incubator. Twenty-four hours later, three-fold serially diluted test compounds in media containing SCF (at the previously determined EC90) were added to the plated M-07e cells and incubated for an additional 72 hours. Cell viability was determined by adding 25 μL CellTiter Glo (Promega) to the cells and the luminescence was measured using a Perkin Elmer Envision plate reader. The EC50 was determined using GraphPad Prism. Percent cell growth was determined after normalizing the curve to the mean RLU high control (no compound control wells) at 100% and the mean RLU low control (no SCF control wells) at 0%.

Chain of Recombinant human c-KIT kinase (P10721 26-976): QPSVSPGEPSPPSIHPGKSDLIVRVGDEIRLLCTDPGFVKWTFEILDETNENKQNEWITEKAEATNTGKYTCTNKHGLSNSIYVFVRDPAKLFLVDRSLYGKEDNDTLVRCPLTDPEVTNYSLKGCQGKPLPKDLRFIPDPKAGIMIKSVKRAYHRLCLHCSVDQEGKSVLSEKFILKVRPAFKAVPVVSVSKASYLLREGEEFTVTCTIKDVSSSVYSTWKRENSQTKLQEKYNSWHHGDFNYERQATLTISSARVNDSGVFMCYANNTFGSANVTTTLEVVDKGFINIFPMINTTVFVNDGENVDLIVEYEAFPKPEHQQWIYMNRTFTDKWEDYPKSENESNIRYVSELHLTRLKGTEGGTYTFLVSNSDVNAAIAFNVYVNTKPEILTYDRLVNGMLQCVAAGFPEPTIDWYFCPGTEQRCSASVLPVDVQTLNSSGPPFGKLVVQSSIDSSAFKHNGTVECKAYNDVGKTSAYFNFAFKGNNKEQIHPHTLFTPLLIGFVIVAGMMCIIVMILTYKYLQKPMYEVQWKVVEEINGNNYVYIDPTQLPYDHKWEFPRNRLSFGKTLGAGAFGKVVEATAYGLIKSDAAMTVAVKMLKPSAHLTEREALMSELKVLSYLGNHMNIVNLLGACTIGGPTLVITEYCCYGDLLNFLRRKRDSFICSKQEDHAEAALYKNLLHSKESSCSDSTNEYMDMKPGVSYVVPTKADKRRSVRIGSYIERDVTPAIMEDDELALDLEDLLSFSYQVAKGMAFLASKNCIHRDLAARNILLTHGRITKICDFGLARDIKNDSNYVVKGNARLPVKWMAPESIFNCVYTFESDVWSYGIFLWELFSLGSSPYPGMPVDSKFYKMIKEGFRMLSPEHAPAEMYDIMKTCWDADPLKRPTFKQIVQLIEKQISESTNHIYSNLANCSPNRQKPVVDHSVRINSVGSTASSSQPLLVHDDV

| Structure (SMILES) | IC50 [1] [nM] | EC50 [2] [nM] |
| --- | --- | --- |
| CC#Cc1ccc2c(C(=O)Nc3cc(-c4noc([C@H]5C[C@@H]5F)n4)ccc3C)cnn2c1 [Example 132-1] | < 100 | 100 to 1000 |
| CC#Cc1ccc2c(C(=O)Nc3cc(-c4noc([C@H]5C[C@@H]5F)n4)c(F)cc3C)cnn2c1 [Example 132-2] | 100 to 1000 | 100 to 1000 |
| Cc1ccc(-c2noc([C@H]3C[C@@H](OC(F)F)C3)n2)cc1NC(=O)c1cnn2cc(-c3cn(C(F)(F)C(=O)O)nn3)ccc12 [Example 132-3] | < 100 | > 1000 |
| Cc1ccc(-c2noc([C@H]3C[C@@H]3F)n2)cc1NC(=O)c1cnn2cc(-c3cn(C(F)(F)C(=O)O)nn3)ccc12 [Example 132-4] | < 100 | > 1000 |
| Cc1ncc(-c2noc([C@H]3C[C@@H]3F)n2)cc1NC(=O)c1cnn2cc(-c3cn(C(F)F)nn3)ccc12 [Example 132-5] | 100 to 1000 | < 100 |
| Cc1ncc(-c2noc([C@H]3C[C@@H](OC(F)(F)F)C3)n2)cc1NC(=O)c1cnn2cc(-c3cn(C(F)F)nn3)ccc12 [Example 132-6] | 100 to 1000 | < 100 |
| Cc1ncc(-c2noc(C3CC(F)(F)C3)n2)cc1NC(=O)c1cnn2cc(-c3cn(C(F)F)nn3)ccc12 [Example 132-7] | 100 to 1000 | 100 to 1000 |
| Cc1ncc(-c2noc([C@H]3C[C@@H](C(F)(F)F)C3)n2)cc1NC(=O)c1cnn2cc(-c3cn(C(F)F)nn3)ccc12 [Example 132-8] | < 100 | < 100 |
| Cc1ncc(-c2noc([C@H]3C[C@@H](OC(F)(F)F)C3)n2)cc1NC(=O)c1cnn2cc(-c3cn(CCO)nn3)ccc12 [Example 132-9] | < 100 | < 100 |
| Cc1ncc(-c2noc([C@H]3C[C@@H](OC(F)(F)F)C3)n2)cc1NC(=O)c1cnn2cc(-c3cn(CC(C)(C)O)nn3)ccc12 [Example 132-10] | 100 to 1000 | < 100 |
| Cc1ncc(-c2noc([C@H]3C[C@@H](OC(F)(F)F)C3)n2)cc1NC(=O)c1cnn2cc(-c3cn(CC4(C)COC4)nn3)ccc12 [Example 132-12] | < 100 | < 100 |
| Cc1ccc(-c2ncc(C3CC3)cn2)cc1NC(=O)c1cnn2cc(-c3cn(C(F)F)nn3)ccc12 [Example 132-13] | < 100 | < 100 |
| Cc1ccc(-c2ncc(C3CC3)cn2)cc1NC(=O)c1cnn2cc(-c3cn(CC(C)(C)O)nn3)ccc12 [Example 132-14] | < 100 | < 100 |
| COC(=O)N1CC(c2nc(-c3ccc(C)c(NC(=O)c4cnn5cc(-c6cn(C(F)F)nn6)ccc45)c3)no2)C1 [Example 132-15] | < 100 | < 100 |
| COC(=O)N1CC(c2nc(-c3cnc(C)c(NC(=O)c4cnn5cc(-c6cn(C(F)F)nn6)ccc45)c3)no2)C1 [Example 132-16] | 100 to 1000 | 100 to 1000 |
| COC(=O)N1CC(c2nc(-c3ccc(Cl)c(NC(=O)c4cnn5cc(-c6cn(C(F)F)nn6)ccc45)c3)no2)C1 [Example 132-17] | < 100 | < 100 |
| Cc1ccc(-c2noc([C@H]3C[C@@H]3F)n2)cc1NC(=O)c1cnn2ccc(-c3nnn(CC(C)(C)O)n3)cc12 [Example 132] | < 100 | < 100 |
| Cc1ccc(-c2noc([C@H]3C[C@@H]3F)n2)cc1NC(=O)c1cnn2ccc(-c3ccn(C(F)F)n3)cc12 [Example 135] | < 100 | 100 to 1000 |
| Cc1ccc(-c2noc([C@H]3C[C@@H]3F)n2)cc1NC(=O)c1cnn2ccc(-c3cnn(C4COC4)c3)cc12 [Example 136] | < 100 | < 100 |
| Cc1ccc(-c2noc([C@H]3C[C@@H]3F)n2)cc1NC(=O)c1cnn2ccc(-c3cnn(CCO)c3)cc12 [Example 138] | < 100 | < 100 |

| Structure (SMILES) | IC50 [1] [nM] | EC50 [2] [nM] |
| --- | --- | --- |
| Cc1ccc(-c2noc([C@H]3C[C@@H]3F)n2)cc1NC(=O)c1cnn2ccc(-c3cnn(C(C)(C)CO)c3)cc12 [Example 140] | < 100 | < 100 |
| Cc1ccc(-c2noc([C@H]3C[C@@H]3F)n2)cc1NC(=O)c1cnn2ccc(-c3cnn(CC(C)(C)O)c3)cc12 [Example 142] | < 100 | < 100 |
| Cc1ccc(-c2noc([C@H]3C[C@@H]3F)n2)cc1NC(=O)c1cnn2cc(-c3c(C)nn(CC(C)(C)O)c3C)ccc12 [Example 144] | < 100 | < 100 |
| Cc1ccc(-c2noc([C@H]3C[C@@H]3F)n2)cc1NC(=O)c1cnn2ccc(-c3c(C)nn(C4COC4)c3C)cc12 [Example 145] | < 100 | < 100 |
| COCCn1nc(C)c(-c2ccn3ncc(C(=O)Nc4cc(-c5noc([C@H]6C[C@@H]6F)n5)ccc4C)c3c2)c1C [Example 146] | < 100 | < 100 |
| Cc1ccc(-c2noc([C@H]3C[C@@H]3F)n2)cc1NC(=O)c1cnn2ccc(-c3ccc(F)cc3)cc12 [Example 148] | 100 to 1000 | 100 to 1000 |
| Cc1ccc(-c2noc([C@H]3C[C@@H]3F)n2)cc1NC(=O)c1cnn2cc(-c3ccc(F)cc3)ccc12 [Example 149] | < 100 | < 100 |
| Cc1ccc(-c2noc([C@H]3C[C@@H]3F)n2)cc1NC(=O)c1cnn2ccc(-c3cccnc3)cc12 [Example 150] | < 100 | < 100 |
| Cc1ccc(-c2noc([C@H]3C[C@@H]3F)n2)cc1NC(=O)c1cnn2cc(-c3cccnc3)ccc12 [Example 151] | < 100 | < 100 |
| Cc1ccc(-c2noc([C@H]3C[C@@H]3F)n2)cc1NC(=O)c1cnn2ccc(-c3c(C)nn(CC(C)(C)O)c3C)cc12 [Example 152] | < 100 | < 100 |
| COCCn1cc(-c2ccn3ncc(C(=O)Nc4cc(-c5noc([C@H]6C[C@@H]6F)n5)ccc4C)c3c2)cn1 [Example 153] | < 100 | < 100 |
| Cc1ccc(-c2noc([C@H]3C[C@@H]3F)n2)cc1NC(=O)c1cnn2ccc(-c3cncnc3)cc12 [Example 154] | < 100 | < 100 |
| Cc1ccc(-c2noc([C@H]3C[C@@H]3F)n2)cc1NC(=O)c1cnn2cc(-c3cncnc3)ccc12 [Example 155] | 100 to 1000 | 100 to 1000 |
| Cc1ccc(-c2noc([C@H]3C[C@@H]3F)n2)cc1NC(=O)c1cnn2ccc(-c3cnc(N(C)C)nc3)cc12 [Example 156] | < 100 | < 100 |
| Cc1ccc(-c2noc([C@H]3C[C@@H]3F)n2)cc1NC(=O)c1cnn2ccc(-c3cnc(C(F)(F)F)nc3)cc12 [Example 157] | 100 to 1000 | 100 to 1000 |
| Cc1ccc(-c2noc([C@H]3C[C@@H]3F)n2)cc1NC(=O)c1cnn2ccc(-c3cnc(C(C)(C)O)nc3)cc12 [Example 158] | 100 to 1000 | < 100 |
| Cc1ccc(-c2noc([C@H]3C[C@@H]3F)n2)cc1NC(=O)c1cnn2ccc(-c3cnc(NC4CC4)nc3)cc12 [Example 159] | < 100 | < 100 |
| Cc1ccc(-c2noc([C@H]3C[C@@H]3F)n2)cc1NC(=O)c1cnn2ccc(-c3cnc(C4CC4)nc3)cc12 [Example 160] | < 100 | < 100 |
| Cc1ccc(-c2noc([C@H]3C[C@@H]3F)n2)cc1NC(=O)c1cnn2ccc(-c3c(C)n[nH]c3C)cc12 [Example 161] | < 100 | < 100 |
| Cc1ccc(-c2noc([C@H]3C[C@@H]3F)n2)cc1NC(=O)c1cnn2ccc(-c3c(C)nn(CCN4CCOCC4)c3C)cc12 [Example 162] | < 100 | < 100 |
